# Reference: patent US20120315281A1, “TREATMENT OF RENAL INJURY” (THE PENN STATE RESEARCH FOUNDATION, priority 2011, published 2012)
# Key:
# Format in all cases: in vivo, mouse
# arginase 2 mRNA = assay: Kidney arginase 2 mRNA expression by RT-PCR in Ins2^Akita mice; details: whole kidney RNA, Ins2^Akita mice at 14 weeks of age; normalized to GAPDH, relative to control; FIG. 5
# Method: FIGS. 5A and 5B show the effect of arginase inhibition on arginase 2 mRNA expression in Ins2^Akita mice. Real-time polymerase chain reaction (RT-PCR) was performed on whole mouse kidney total RNA isolated at 14 weeks of age. […] In FIG. 5B, expression of arginase 2 mRNA was normalized to GAPDH and data were calculated as expression relative to control.
# Total RNA was extracted from mouse kidneys using RNeasy Mini Kit (Qiagen, Gumbh, Hilden, Germany). Single-strand cDNA was synthesized using iScript cDNA Synthesis Kits (Bio-Rad, Hercules, Calif.) for two-step real-time polymerase chain reaction (RT-PCR). Gene-specific primers for ARG1 and ARG2 were designed using Beacon Designer Probe/Primer Design Software (Premier Biosoft International, Palo Alto, Calif.). Specificity of the PCR products was verified by melting curve analysis. Quantitative real-time PCR was performed using a Bio-Rad CFX96 system (Hercules, Calif.). Reactions were performed in duplicate, and threshold cycle numbers were averaged. Samples were calculated with normalization to GAPDH.
# RT-PCR was performed on whole mouse kidney total RNA isolated at 14 weeks of age. […] In FIG. 5B, expression of arginase 2 mRNA was normalized to GAPDH and data were calculated as expression relative to control.
# [1] = system: eNOS deficient and their wild type (WT) littermate mice; assay: Urinary albumin excretion in STZ-diabetic eNOS deficient and wild type littermate mice; details: BEC 2.3 mg/kg/day s.c. infusion 6 weeks, FIG. 14
# Method: Experiments were conducted using multiple low doses of STZ (50 mg/kg body weight for 5 days). Arginase inhibition using BEC (2.3 mg/kg/day) or vehicle was administered by continuous subcutaneous infusion for 6 weeks via a mini-osmotic pump. Data is shown for 6 weeks after STZ-induced diabetes.
# (§1) Urinary albumin excretion (UAE) was measured by ELISA using Albuwell M (Exocell, Philadelphia, Pa.) as described previously. Blood urea nitrogen (BUN) was measured using (VITROS DT60II chemistry slides; Ortho-Clinical Diagnostics, Rochester, N.Y.). Body composition was determined using LF90 Minispec Time Domain Nuclear Magnetic Resonance Spectrometer (Bruker Optics, Billerica Mass.).
# eNOS deficient mice are recommended by the Animal Models of Diabetes Complications Consortium (AMDCC) as an optimal model of diabetic nephropathy. Experiments were conducted in male 6-week-old eNOS deficient and their wild type (WT) littermate mice using multiple low doses of STZ (50 mg/kg body weight for 5 days). Arginase inhibition using BEC (2.3 mg/kg/day) or vehicle was administered by continuous subcutaneous infusion for 6 weeks via a mini-osmotic pump. Renal function was monitored throughout the study.
# [2] = system: Ins2^Akita and their wild type littermate mice; assay: Glomerular macrophage recruitment, Mac-2 immunohistochemistry, Ins2^Akita experiment; details: 14 weeks of age
# Method: FIGS. 2A-2D show the effect of arginase inhibition on macrophage recruitment in Ins2^Akita mice using immunohistochemistry.
# Immunohistochemistry for macrophages was performed in mice using rat anti-mouse Mac-2 monoclonal antibody; clone M3/38 (Cedarlane, Burlington, N.C., US) on paraffin sections. Sections were incubated with primary antibody (50 μg/ml) followed by a biotinylated goat IgG anti-rat (Vector Laboratories, Burlingame, Calif.) secondary antibody according to the manufacturer's protocol. Sections were viewed using an Olympus BX51 microscope and DP71 digital camera using MicroSuite Basic 2.6 imaging software. Images were taken with 100× (oil) objective with a total magnification of 1000×. The number of glomerular macrophages were counted in twenty glomeruli per section (number of macrophages in glomeruli divided by the number of glomeruli) in blinded fashion under 40× magnification and averaged.
# To determine whether arginases are critical for kidney macrophage infiltration in diabetic nephropathy, the distribution and quantitation of macrophages in kidneys by immunohistochemistry (Mac-2 positive macrophages) were analyzed. […]
# [3] = system: STZ-induced diabetic mice (DBA background); assay: Renal histological changes, PAS staining, STZ-induced diabetic mice (DBA background)
# Excerpt: Sections were stained with Periodic acid-Schiff (PAS) and all glomeruli were examined at 40×. Images were taken with 100× (oil) objective with a total magnification of 1000×. […] Adjacent tubular basement membranes stain PAS positive as well.
# Kidneys from mice were fixed in 4% paraformaldehyde, embedded in paraffin, and 3-μm sections were cut. Sections were stained with Periodic acid-Schiff (PAS) stain and all glomeruli were examined at 40× (TKC) in a masked fashion. All images were obtained with an Olympus BX51 microscope and DP71 digital camera using MicroSuite Basic 2.6 imaging software. Images were taken with 100× (oil) objective with a total magnification of 1000×. Semiquantitative scores (0-4+) were assigned based on the masked reading, as previously described. Each glomerulus on a single section was graded from 0 to 4+, where 0 represents no lesion, and 1, 2, 3, and 4+ represent mesangial matrix expansion or sclerosis, involving […] of the glomerular tuft area, respectively.
# [4] = system: Ins2^Akita and their wild type littermate mice; assay: Blood urea nitrogen (BUN) in Ins2^Akita and wild type littermate mice; details: BEC 2.3 mg/kg/day 9 weeks, 14-week of age, mean ± SEM
# Method: (§2) Experiments were conducted in male Ins2^Akita and their wild type (WT) littermate mice (DBA background; Jackson Laboratories) starting at 5 weeks of age until 14 weeks of age and were approved by the Pennsylvania State University College of Medicine Institutional Animal Care and Use Committee (PSU IACUC). The Ins2^Akita mice were recommended by the Animal Models of Diabetes Complications Consortium as an optimal model of diabetic nephropathy, and the mice developed hyperglycemia at 3 weeks of age. […]
# (§3) BEC, a selective arginase antagonist (2.3 mg/kg/day, Cayman Chemical, Ann Arbor, Mich., USA), or vehicle (phosphate-buffered saline) was administered by continuous subcutaneous infusion for 9 weeks (in Ins2^Akita experiments) or for 6 wks (in STZ DBA mice experiments) via a mini-osmotic pump (Alzet; Durect Corporation, Palo Alto, Calif., USA) as described in CIRCULATION RESEARCH, 102(8):923-32, Apr. […] The condition of mice and body weight were monitored daily following the pump implantation.
# as §1, with “Mass.). […]” for “Mass.).”
# [5] = system: Ins2^Akita and their wild type littermate mice; assay: Characteristics of Ins2^Akita and wild type littermate mice (glucose, body weight, kidney weight, body composition) with or without arginase inhibitor; details: BEC 2.3 mg/kg/day 9 weeks, 14-week of age, mean ± SEM
# Method: Experiments were conducted in male Ins2^Akita and their wild type (WT) littermate mice (DBA background; Jackson Laboratories) starting at 5 weeks of age until 14 weeks of age and were approved by the Pennsylvania State University College of Medicine Institutional Animal Care and Use Committee (PSU IACUC). The Ins2^Akita mice were recommended by the Animal Models of Diabetes Complications Consortium as an optimal model of diabetic nephropathy, and the mice developed hyperglycemia at 3 weeks of age. Additional experiments were conducted in male 6-week-old mice (DBA background; Jackson Laboratories), arginase-2 (Arg2) wild type […] mice on C57B1/6 background weighing 20-22 g and were approved by the PSU IACUC. After an overnight fast, animals were given multiple low doses of vehicle or STZ (Sigma, St. Louis, Mo.; 50 mg/kg body wt dissolved in lactated Ringers solution) via intraperitoneal injection.
# BEC, a selective arginase antagonist (2.3 mg/kg/day, Cayman Chemical, Ann Arbor, Mich., USA), or vehicle (phosphate-buffered saline) was administered by continuous subcutaneous infusion for 9 weeks (in Ins2^Akita experiments) or for 6 wks (in STZ DBA mice experiments) via a mini-osmotic pump (Alzet; Durect Corporation, Palo Alto, Calif., USA) as described in CIRCULATION RESEARCH, 102(8):923-32, Apr. 25, 2008. The osmotic pump was incubated in phosphate buffer saline (PBS) for 60-h at 37° C. prior to implantation and was implanted dorsally between shoulders. The condition of mice and body weight were monitored daily following the pump implantation.
# as §1, with “Mass.). […]” for “Mass.).”
# [6] = system: STZ-induced diabetic mice; assay: Glomerular macrophage recruitment, Mac-2 staining, STZ-induced diabetic mice; details: arginase inhibitor 6 weeks, p<0.0001 vs vehicle-treated diabetic
# Method: as §2, §3
# Immunohistochemistry for macrophages was performed in mice using rat anti-mouse Mac-2 monoclonal antibody; clone M3/38 (Cedarlane, Burlington, N.C., US) on paraffin sections. […] The number of glomerular macrophages were counted in twenty glomeruli per section (number of macrophages in glomeruli divided by the number of glomeruli) in blinded fashion under 40× magnification and averaged.
# Ins2^Akita mice = assay: 24-hr urinary albumin excretion (UAE) in Ins2^Akita mice; details: BEC 2.3 mg/kg/day 9 weeks, at 14 weeks of age, vs vehicle, FIG. 1
# Method: The Ins2^Akita and their wild type (WT) littermate mice were treated with the arginase-specific inhibitor S-(2-Boronoethyl)-L-cysteine (BEC) (2.3 mg/kg/day) or vehicle via osmotic minipump for 9 weeks. Urine was collected for measurement of UAE before treatment (at 5 weeks of age) and after treatment (at 14 weeks of age). In FIG. 1, the open bars are vehicle treated groups and filled bars are arginase inhibitor treated groups. Data are presented as mean±SEM. […]
# as §3
# as §1, with “Mass.). […]” for “Mass.).”
# [7] = system: STZ-induced diabetic mice (DBA background); assay: 24-hr urinary albumin excretion in STZ-induced diabetic mice (DBA background); details: BEC 2.3 mg/kg/day 6 weeks, vs vehicle-treated diabetic, FIG. 6
# Method: After an overnight fast, animals were given multiple low doses of vehicle or STZ (Sigma, St. Louis, Mo.; 50 mg/kg body wt dissolved in lactated Ringers solution) via IP injection. Mice were treated with the arginase-specific inhibitor BEC (2.3 mg/kg/day) or vehicle via osmotic minipump for 6 weeks. Urine was collected for measurement of UAE after 6 weeks. Data are presented as mean±SEM.
# Experiments were conducted in male Ins2^Akita and their wild type (WT) littermate mice (DBA background; Jackson Laboratories) starting at 5 weeks of age until 14 weeks of age and were approved by the Pennsylvania State University College of Medicine Institutional Animal Care and Use Committee (PSU IACUC). […]
# as §3
# Urinary albumin excretion (UAE) was measured by ELISA using Albuwell M (Exocell, Philadelphia, Pa.) as described previously. […]
# [8] = control (wild type littermate) mice
smiles,measurement,setting,value
"N[C@@H](CSCCB(O)O)C(=O)O [BEC, S-(2-Boronoethyl)-L-cysteine]",increase in arginase 2 mRNA expression,arginase 2 mRNA,~1.5 fold
same,albuminuria (UAE),"[1]; diabetic WT mice (STZ), vs vehicle",significantly reduced
same,UAE,"[1]; diabetic eNOS deficient mice (STZ), vs vehicle treated diabetic mice",failed to reduce
same,glomerular macrophage recruitment (Mac-2 positive),"[2]; Ins2^Akita mice treated with arginase inhibitor, p<0.0001 vs vehicle-treated Ins2^Akita, FIG. 2D",0.9±0.14 macrophages/glomerulus
same,glomerular macrophage recruitment (Mac-2 positive),"[2]; control mice treated with arginase inhibitor, FIG. 2C",0.29±0.03 macrophages/glomerulus
same,"PAS positive material, share of the mesangial matrix","[3]; representative PAS section from arginase inhibitor treated STZ mouse, FIG. 7C",< 25%
same,"glomerular changes (PAS, glomerular cellularity and mesangial expansion) score","[3]; semiquantitative score 0-4+, STZ-induced diabetic mice after 6 weeks, p<0.05 vs vehicle-treated STZ",1.6±0.08
same,BUN,[4]; Ins2^Akita mice,28 ± 3
same,BUN,[4]; [8],28 ± 3
same,Kidney weight,[5]; Ins2^Akita mice,269 ± 10 mg
same,KW/BW (kidney weight to body weight ratio),[5]; [8],8.1 ± 0.1 mg/g
same,Kidney weight,[5]; [8],262 ± 4 mg
same,glomerular macrophage recruitment (Mac-2 staining),[6],1.2±0.06 macrophages/glomerulus
same,Albuminuria (urinary albumin excretion),Ins2^Akita mice,significantly reduced
same,albuminuria (24-hr UAE),[7],significantly reduced
